Measured values: patent publication EP4471048A1, “PEPTIDE INHIBITORS OF INTERLEUKIN-23 RECEPTOR” (Zealand Pharma A/S, priority 2023, dated 2024)
pIC50, pKi: −log10 of the molar value. *1 amine or outer side, *2 acyl side, *3 side chain or, on linkers, in order; H or OH if unused. Where a SMILES comes first, the peptide text is derived from it. Bridges are numbered along the chain shown (N, C = ends). [ ]: non-standard residue; d: D form. hAad = O=C([C@H](CCCCC(=O)[*:3])N[*:1])[*:2]; X7 = O=C(C[C@H](CCCN[*:3])N[*:2])[*:1]; 2Nal = N[C@@H](Cc1ccc2ccccc2c1)C(=O)O; AEF = NCCOc1ccc(C[C@H](N)C(=O)O)cc1; 3Pal = N[C@@H](Cc1cccnc1)C(=O)O; Aad = N[C@@H](CCCC(=O)O)C(=O)O; αMeL = CC(C)C[C@](C)(N)C(=O)O; dOrn = NCCC[C@@H](N)C(=O)O; dDab = NCC[C@@H](N)C(=O)O; Dab = NCC[C@H](N)C(=O)O; X6 = O=C(CN[*:2])[*:1]

Experiments:
[1] = molecular target: IL-23 mediated signalling (Homo sapiens, UniProt Q5VWK5); test: Functional inhibition of IL-23 mediated STAT3 signalling (phospho-STAT3 MSD) in DB cells; format: cell-based; settings: Table 3-2, DB cells, hIL-23 at EC80; for Emax: maximal inhibitory response, read-out: hIL-23 (pSTAT3) antagonist % inhibition; for pIC50: read-out: hIL-23 (pSTAT3) antagonist IC50
Text: Upon binding of IL-23, the IL-23R forms a heterodimer signalling complex together with IL-12R β1, which through the JAK2/STAT3 pathway promotes phosphorylation of STAT3 to form phospho-STAT3.
For compounds tested in this assay, the response was normalized relative to control values to calculate the IC50 and maximal inhibitory response from a concentration response curve of the compound in presence of a fixed concentration of human IL-23.
The assay procedure was as follows. […] Following preincubation of the DB cells with inhibitor for 15 min in a cell incubator (37 °C, 5% CO2), 20 µL of the prepared 3X the EC80 of hIL-23 solution was added to each well and incubated for 90 min in a cell incubator (37 °C, 5% CO2). For some wells buffer only or IL-23 only corresponding to the EC80 was added to obtain readouts needed for normalization. To terminate the assay, the plate was spun at 1000 G for 5 min to pellet cells, the supernatant removed using an 8-channel manual pipette, and then added 50 µL/well Complete Lysis Buffer from the MSD STAT3 kit (Cat# K150SVD, Mesoscale) to the cell pellet. To completely lyse cells to release phospho-STAT3 for detection, the plate was shaken for 10 min at room temperature (500 rpm) sealed with aluminium foil and placed at -80 °C for a minimum of 15 min. Detection of the phospho-STAT3 level in the cell lysate from the individual wells was determined using the MSD STAT3 kit (Cat# K150SVD, Mesoscale) and read on a Meso QuickPlex SQ 120 plate reader (Mesoscale).
For data analysis raw data counts from the Meso QuickPlex SQ 120 plate reader were normalized relative to the response by the EC80 of h1L-23 alone (no compound added) and the buffer level. Compound potency (IC50) and maximal inhibitory response (% inhibition) were estimated by computer-aided curve fitting using a 4-parameter logistic (4PL) nonlinear model. […] Table 3-2: hIL-23 (pSTAT3) antagonist IC50 and % inhibition

human IL-23R = molecular target: T1, human IL-23R (Homo sapiens, UniProt Q5VWK5); test: biochemical; settings: for Emax: read-out: % displacement (hIL-23R NIuc)
T1 sequence (Q5VWK5 22-629): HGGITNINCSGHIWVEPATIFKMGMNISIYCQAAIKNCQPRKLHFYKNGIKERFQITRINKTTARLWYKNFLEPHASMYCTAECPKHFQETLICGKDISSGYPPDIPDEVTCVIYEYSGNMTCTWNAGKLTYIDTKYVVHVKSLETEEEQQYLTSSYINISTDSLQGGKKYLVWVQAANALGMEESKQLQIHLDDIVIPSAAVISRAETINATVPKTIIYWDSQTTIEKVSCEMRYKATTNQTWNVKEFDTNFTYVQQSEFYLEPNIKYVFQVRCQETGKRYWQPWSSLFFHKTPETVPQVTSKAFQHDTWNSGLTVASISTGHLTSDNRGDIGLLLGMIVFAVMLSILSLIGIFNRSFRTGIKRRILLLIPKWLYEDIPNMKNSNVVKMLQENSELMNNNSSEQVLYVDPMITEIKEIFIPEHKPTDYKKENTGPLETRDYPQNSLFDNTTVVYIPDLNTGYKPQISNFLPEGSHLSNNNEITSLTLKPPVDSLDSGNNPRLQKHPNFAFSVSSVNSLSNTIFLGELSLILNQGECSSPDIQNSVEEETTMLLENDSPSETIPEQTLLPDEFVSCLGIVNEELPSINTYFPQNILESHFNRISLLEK
Summary of the method: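 BRET displacement of a TAMRA-labelled reference compound from N-terminal Nanoluc-IL-23R fusion protein in membranes from stably transfected HEK293 cells. Incubation 2 h at room temperature, then Nanoluc substrate was added and the TAMRA/Nanoluc ratio read. IC50 and maximal displacement came from 4-parameter logistic fits.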

Emax [1] [%]	% displacement (hIL-23R NIuc) (human IL-23R) [%]	pIC50 (human IL-23R)	pIC50 [1]	Emax (human IL-23R) [%]	pKi (human IL-23R)	SMILES
104	104	10.66	–	–	–	CC(C)C[C@]1(C)NC(=O)[C@H](Cc2ccc3ccccc3c2)NC(=O)[C@H](Cc2ccc(OCCN)cc2)NC(=O)[C@@H]2CCC(=O)N[C@H](CCCNC(=O)CCC[C@@H](C(=O)N[C@@H](CCN)C(=O)N[C@@H](Cc3cccnc3)C(N)=O)NC1=O)C(=O)N[C@@H]([C@@H](C)O)C(=O)N[C@@H](C(C)C)C(=O)N[C@@H](Cc1c[nH]c3ccccc13)C(=O)N[C@@H](CCC(N)=O)C(=O)N2 [Compound 6, [{d}Orn](1c)(6c)^†TVWQE(6c)[Y(2-aminoethoxy)][2-Nal][2-Me-Leu][hGlu](1c)[Dab][3-(3-Pyridyl)-Ala]-[NH2]] ([dOrn]TVWQE[AEF][2Nal][αMeL][Aad][Dab][3Pal]-NH2; lactam 1-10, N-6)
99	104	10.77	–	–	–	CC(C)C[C@]1(C)NC(=O)[C@H](Cc2ccc3ccccc3c2)NC(=O)[C@H](Cc2ccc(OCCN)cc2)NC(=O)[C@@H]2CCC(=O)N[C@H](CCNC(=O)CCCC[C@@H](C(=O)N[C@@H](CCN)C(=O)N[C@@H](Cc3cccnc3)C(N)=O)NC1=O)C(=O)N[C@@H]([C@@H](C)O)C(=O)N[C@@H](C(C)C)C(=O)N[C@@H](Cc1c[nH]c3ccccc13)C(=O)N[C@@H](CCC(N)=O)C(=O)N2 [Compound 7, [{d}Dab](1c)(6c)^†TVWQE(6c)[Y(2-aminoethoxy)][2-Nal][2-Me-Leu][2-Amino-6-carboxyhexanoyl](1 c)[Dab][3-(3-Pyridyl)-Ala]-[NH2]] ([dDab]TVWQE[AEF][2Nal][αMeL][hAad][Dab][3Pal]-NH2; lactam 1-10, N-6)
100	104	–	–	–	–	CC(C)C[C@]1(C)NC(=O)[C@H](Cc2ccc3ccccc3c2)NC(=O)[C@H](Cc2ccc(OCCN)cc2)NC(=O)[C@@H]2CCC(=O)N[C@@H](CCCNC(=O)CC[C@@H](C(=O)N[C@@H](CCN)C(=O)N[C@@H](Cc3cccnc3)C(N)=O)NC1=O)CC(=O)N[C@@H]([C@@H](C)O)C(=O)N[C@@H](C(C)C)C(=O)N[C@@H](Cc1c[nH]c3ccccc13)C(=O)N[C@@H](CCC(N)=O)C(=O)N2 [Compound 12, [bLys](1c)(6c)^†TVWQE(6c)[Y(2-aminoethoxy)][2-Nal][2-Me-Leu]E(1c)[Dab][3-(3-Pyridyl)-Ala]-[NH2]] (TVWQE[AEF][2Nal][αMeL]E[Dab][3Pal]-NH2; linker N-5-9 via X7)
99	–	–	8.54	107	–	CC[C@H](C)[C@@H]1NC(=O)[C@@H]2CCCCNC(=O)CC[C@@H](C(=O)N[C@@H](CCN)C(=O)N[C@@H](Cc3cccnc3)C(N)=O)NC(=O)C(C)(C)NC(=O)[C@H](Cc3ccc4ccccc4c3)NC(=O)[C@H](Cc3ccc(C)cc3)NC(=O)[C@H](CCC(=O)N2)NC(=O)[C@H](CCC(N)=O)NC(=O)[C@H](Cc2c[nH]c3ccccc23)NC(=O)[C@H](C(C)C)NC1=O [Compound 17, K(1c)(6c)^†IVWQE(6c)[F(4-Me)][2-Nal][Aib]E(1c)[Dab][3-(3-Pyridyl)-Ala]-[NH2]]
97	–	9.54	–	100	–	CNC(=O)[C@H](Cc1cccnc1)NC(=O)[C@H](CCN)NC(=O)[C@@H]1CCC(=O)NCCCC[C@@H]2NC(=O)CC[C@H](NC(=O)[C@H](CCC(N)=O)NC(=O)[C@H](Cc3c[nH]c4ccccc34)NC(=O)[C@H]([C@@H](C)O)NC2=O)C(=O)N[C@@H](Cc2ccc(OCCN)cc2)C(=O)N[C@@H](Cc2ccc3ccccc3c2)C(=O)N[C@@](C)(CC(C)C)C(=O)N1 [Compound 36, K(1c)(6c)^†TWQE(6c)[Y(2-aminoethoxy)][2-Nal][2-Me-Leu]E(1c)[Dab][3-(3-Pyridyl)-Ala]-[NHMe]] (KTWQE[AEF][2Nal][αMeL]E[Dab][3Pal]-NHMe; lactam 1-9, N-5)
99	98	9.19	–	–	–	CNC(=O)[C@H](Cc1cccnc1)NC(=O)[C@H](CCN)NC(=O)[C@@H]1CCCCNC(=O)CC[C@@H]2NC(=O)CC[C@H](NC(=O)[C@H](CCC(N)=O)NC(=O)[C@H](Cc3c[nH]c4ccccc34)NC(=O)[C@H]([C@@H](C)O)NC2=O)C(=O)N[C@@H](Cc2ccc(OCCN)cc2)C(=O)N[C@@H](Cc2ccc3ccccc3c2)C(=O)N[C@@](C)(CC(C)C)C(=O)N1 [Compound 39, E(1c)(6c)^†TWQE(6c)[Y(2-aminoethoxy)][2-Nal][2-Me-Leu]K(1c)[Dab][3-(3-Pyridyl)-Ala]-[NHMe]] (ETWQE[AEF][2Nal][αMeL]K[Dab][3Pal]-NHMe; lactam 1-9, N-5)
102	–	8.14	–	104	–	CNC(=O)[C@H](Cc1cccnc1)NC(=O)[C@H](CCN)NC(=O)[C@@H]1CCC(=O)NCC(=O)NCCCC[C@@H]2NC(=O)CC[C@H](NC(=O)[C@H](CCC(N)=O)NC(=O)[C@H](Cc3c[nH]c4ccccc34)NC2=O)C(=O)N[C@@H](Cc2ccc(OCCN)cc2)C(=O)N[C@@H](Cc2ccc3ccccc3c2)C(=O)N[C@@](C)(CC(C)C)C(=O)N1 [Compound 46, [K(G)](1c)(6c)^†WQE(6c)[Y(2-aminoethoxy)][2-Nal][2-Me-Leu]E(1c)[Dab][3-(3-Pyridyl)-Ala]-[NHMe]] (KWQE[AEF][2Nal][αMeL]E[Dab][3Pal]-NHMe; linker 1-8 via X6; lactam N-4)
99	102	8.59	7.89	–	8.68	CC(=O)N[C@H]1CCSC[C@@H](C(=O)N[C@@H](Cc2ccc(OCCN)cc2)C(=O)N[C@@H](Cc2c[nH]c3ccccc23)C(=O)N[C@@](C)(CCCCN)C(=O)N[C@@H](CCC(=O)O)C(=O)N[C@@H](CC(N)=O)C(=O)NCC(N)=O)NC(=O)[C@H](CCC(N)=O)NC(=O)[C@H](Cc2c[nH]c3ccccc23)NC(=O)[C@H]([C@@H](C)O)NC(=O)[C@H](CCC(N)=O)NC1=O [Compound C, [Ac]-[Abu](16i)QTWQC(16i)[Y(2-aminoethoxy)]W[2-Me-Lys]ENG-[NH2], reference compound]
97	103	8.46	7.74	–	8.55	CC(=O)N[C@H]1CCCCNC(=O)CC[C@@H](C(=O)N[C@@H](CCCNC(=N)N)C(N)=O)NC(=O)[C@H](CC(C)C)NC(=O)[C@H](Cc2ccc3ccccc3c2)NC(=O)[C@H](Cc2c[nH]c3ccccc23)NC(=O)[C@@H]2CSCC(=O)CSC[C@H](NC(=O)[C@H](CO)NC1=O)C(=O)N[C@@H](Cc1c[nH]c3ccccc13)C(=O)N[C@@H](CCC(N)=O)C(=O)N2 [Ref 18, [Ac]-K(1c)SC(2a)WQC(2a)W[2-Nal]LE(1c)R-[NH2], reference compound] (HELM PEPTIDE1{[ac].K.S.C.W.Q.C.W.[O=C([C@H](Cc1ccc2ccccc2c1)N[*:1])[*:2]].L.E.R.[am]}|CHEM1{[O=C(C[*:1])C[*:2]]}$PEPTIDE1,PEPTIDE1,2:R3-11:R3|PEPTIDE1,CHEM1,4:R3-1:R1|PEPTIDE1,CHEM1,7:R3-1:R2$$$V2.0)
